Laboratory results reported in PMC7838034 (Acta Pharmaceutica Sinica. B, 2020).
Like-named read-outs stand apart in the source and are kept apart here.

Assays:
[1] = target: recombinant BRD4(BD1 + BD2) (Homo sapiens, UniProt O60885); experiment: BRD4 inhibition assay; type: binding; details: tested in duplicate, average; for inhibition at 1 µM: read-out: Inhibition rate BRD4, 1 μmol/L; for inhibition at 10 µM: read-out: Inhibition rate BRD4, 10 μmol/L
PARP1 = PARP1 (Homo sapiens, UniProt P09874); experiment: PARP1 inhibition assay; type: biochemical; details: tested in duplicate, average; for inhibition at 1 µM: read-out: Inhibition rate PARP1, 1 μmol/L; for inhibition at 10 µM: read-out: Inhibition rate PARP1, 10 μmol/L
MDA-MB-468 cells = experiment: Cell viability assay; type: cell-based, human; details: read-out: Anti-proliferative activity (IC50)
[2] = MDA-MB-468 cells, cell viability assay for 24 h

PARP1, sequence (P09874 whole entry): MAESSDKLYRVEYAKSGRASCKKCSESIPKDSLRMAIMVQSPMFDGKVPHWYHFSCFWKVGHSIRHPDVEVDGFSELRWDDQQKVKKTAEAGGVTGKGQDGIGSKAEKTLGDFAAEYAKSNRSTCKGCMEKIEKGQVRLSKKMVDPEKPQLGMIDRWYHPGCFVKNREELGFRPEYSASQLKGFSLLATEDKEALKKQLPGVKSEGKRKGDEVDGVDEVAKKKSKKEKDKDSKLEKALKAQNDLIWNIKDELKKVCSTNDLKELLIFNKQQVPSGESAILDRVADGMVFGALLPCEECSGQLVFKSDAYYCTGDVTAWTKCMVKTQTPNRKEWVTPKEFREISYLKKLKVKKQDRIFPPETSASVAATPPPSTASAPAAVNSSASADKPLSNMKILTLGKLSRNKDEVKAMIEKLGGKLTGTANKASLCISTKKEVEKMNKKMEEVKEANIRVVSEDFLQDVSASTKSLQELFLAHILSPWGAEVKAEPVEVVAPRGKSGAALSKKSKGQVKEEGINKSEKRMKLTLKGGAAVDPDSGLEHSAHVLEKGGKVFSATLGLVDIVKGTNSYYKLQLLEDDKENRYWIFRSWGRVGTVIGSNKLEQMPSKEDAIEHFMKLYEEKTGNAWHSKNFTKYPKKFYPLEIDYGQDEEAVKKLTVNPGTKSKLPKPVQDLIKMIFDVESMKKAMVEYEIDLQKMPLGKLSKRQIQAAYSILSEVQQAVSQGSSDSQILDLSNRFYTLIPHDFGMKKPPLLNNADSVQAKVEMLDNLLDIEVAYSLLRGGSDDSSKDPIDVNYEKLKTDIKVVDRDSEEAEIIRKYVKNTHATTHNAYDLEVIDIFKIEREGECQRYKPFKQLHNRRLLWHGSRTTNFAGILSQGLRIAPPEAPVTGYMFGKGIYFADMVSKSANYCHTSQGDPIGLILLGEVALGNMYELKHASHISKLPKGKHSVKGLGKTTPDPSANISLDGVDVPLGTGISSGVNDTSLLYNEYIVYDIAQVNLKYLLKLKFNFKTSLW

With “2-(2-(2-((3a,7a-Dihydro-1H-benzo[d][1,2,3]triazol-1-yl)oxy)ethoxy)-4-methoxyphenyl)-5,7-dimethoxyquinazolin-4(3H)-one [Compound 19q]” the “Inhibition rate BRD4” value ([1]; 1 μmol/L) was 11%, the “Inhibition rate BRD4” value ([1]; 10 μmol/L) was 80% and the “Inhibition rate PARP1” value (PARP1; 1 μmol/L) was 3%. The “Inhibition rate PARP1” value (PARP1; 10 μmol/L) was 2% and the IC50 (MDA-MB-468 cells; [2]) was 24.2 ± 2.2 µM.

“2-(4-((4-(Cyclopropanecarbonyl)piperazin-1-yl)methyl)phenyl)-5,7-dimethoxyquinazolin-4(3H)-one [Compound 11c]” was tested, and the “Inhibition rate BRD4” value ([1]; 1 μmol/L) was 9%, the “Inhibition rate BRD4” value ([1]; 10 μmol/L) was 47% and the “Inhibition rate PARP1” value (PARP1; 1 μmol/L) was 8%. The “Inhibition rate PARP1” value (PARP1; 10 μmol/L) was 60%.

For “2-(4-((4-(Cyclopropanecarbonyl)piperazin-1-yl)methyl)phenyl)quinazolin-4(3H)-one [Compound 11d]”, the “Inhibition rate BRD4” value ([1]; 1 μmol/L) was 4%, the “Inhibition rate BRD4” value ([1]; 10 μmol/L) was 41% and the “Inhibition rate PARP1” value (PARP1; 1 μmol/L) was 18%. The “Inhibition rate PARP1” value (PARP1; 10 μmol/L) was 71%.

In the case of “2-(4-Chloro-2-(2-((3a,7a-dihydro-1H-benzo[d][1,2,3]triazol-1-yl)oxy)ethoxy)phenyl)-5,7-dimethoxyquinazolin-4(3H)-one [Compound 19r]”, the “Inhibition rate BRD4” value ([1]; 1 μmol/L) is reported as 17%, the “Inhibition rate BRD4” value ([1]; 10 μmol/L) is reported as 77% and the “Inhibition rate PARP1” value (PARP1; 1 μmol/L) is reported as 4%. For the same compound, the “Inhibition rate PARP1” value (PARP1; 10 μmol/L) was 6% and the IC50 (MDA-MB-468 cells; [2]) was greater than 30 µM.

With `CNC(=O)c1ccc(-c2nc3cc(OC)cc(OC)c3c(=O)[nH]2)cc1` [Compound 5a, 4-(5,7-Dimethoxy-4-oxo-3,4-dihydroquinazolin-2-yl)-N-methylbenzamide] the inhibition at 1 µM [1] was 1%, the inhibition at 10 µM [1] was 36% and the inhibition at 1 µM (PARP1) was 4%. It also gave an inhibition at 10 µM (PARP1) of 25%.

For `CNC(=O)c1ccc(-c2nc3ccccc3c(=O)[nH]2)cc1` [Compound 5b, N-Methyl-4-(4-oxo-3,4-dihydroquinazolin-2-yl)benzamide], the inhibition at 1 µM [1] was 0%, the inhibition at 10 µM [1] was 22% and the inhibition at 1 µM (PARP1) was 0%. For the same compound, the inhibition at 10 µM (PARP1) was 15%.

With `COc1cc(OC)c2c(=O)[nH]c(-c3ccc(C(N)=O)cc3)nc2c1` [Compound 5c, 4-(5,7-Dimethoxy-4-oxo-3,4-dihydroquinazolin-2-yl)benzamide] the inhibition at 1 µM [1] was 1%, the inhibition at 10 µM [1] was 18% and the inhibition at 1 µM (PARP1) was 0%. The inhibition at 10 µM (PARP1) was 2%.

`NC(=O)c1ccc(-c2nc3ccccc3c(=O)[nH]2)cc1` [Compound 5d, 4-(4-Oxo-3,4-dihydroquinazolin-2-yl)benzamide] gave an inhibition at 1 µM [1] of 2%, an inhibition at 10 µM [1] of 19% and an inhibition at 1 µM (PARP1) of 0%. It also gave an inhibition at 10 µM (PARP1) of 1%.

In the case of `COc1cc(OC)c2c(=O)[nH]c(-c3ccc(N4CCOCC4)cc3)nc2c1` [Compound 5e, 5,7-Dimethoxy-2-(4-morpholinophenyl)quinazolin-4(3H)-one], the inhibition at 1 µM [1] is reported as 12%, the inhibition at 10 µM [1] is reported as 70% and the inhibition at 1 µM (PARP1) is reported as 2%. The inhibition at 10 µM (PARP1) was 36%.

Work on `O=c1[nH]c(-c2ccc(N3CCOCC3)cc2)nc2ccccc12` [Compound 5f, 2-(4-Morpholinophenyl)quinazolin-4(3H)-one] yielded an inhibition at 1 µM [1] of 12%, an inhibition at 10 µM [1] of 55% and an inhibition at 1 µM (PARP1) of 0%. It also gave an inhibition at 10 µM (PARP1) of 29%.

For `COc1cc(OC)c2c(=O)[nH]c(-c3ccc4cc[nH]c4c3)nc2c1` [Compound 5g, 2-(1H-Indol-6-yl)-5,7-dimethoxyquinazolin-4(3H)-one], the inhibition at 1 µM [1] was 3%, the inhibition at 10 µM [1] was 13% and the inhibition at 1 µM (PARP1) was 9%. It also gave an inhibition at 10 µM (PARP1) of 34%.

With `O=c1[nH]c(-c2cccc3nc[nH]c23)nc2ccccc12` [Compound 5h, 2-(1H-Benzo[d]imidazole-7-yl)quinazolin-4(3H)-one] the inhibition at 1 µM [1] was 0%, the inhibition at 10 µM [1] was 11% and the inhibition at 1 µM (PARP1) was 3%. It also gave an inhibition at 10 µM (PARP1) of 10%.

In the case of `COc1cc(OC)c2c(=O)[nH]c(-c3c[nH]c4ncccc34)nc2c1` [Compound 5i, 5,7-Dimethoxy-2-(1H-pyrrolo[2,3-b]pyridin-3-yl)quinazolin-4(3H)-one], the inhibition at 1 µM (PARP1) is reported as 8%.

`O=c1[nH]c(-c2c[nH]c3ncccc23)nc2ccccc12` [Compound 5j, 2-(1H-Pyrrolo[2,3-b]pyridin-3-yl)quinazolin-4(3H)-one] showed an inhibition at 1 µM [1] of 6%.

`COc1cc(OC)c2c(=O)[nH]c(-c3cccc4nc[nH]c34)nc2c1` [Compound 5k, 2-(1H-Benzo[d]imidazole-7-yl)-5,7-dimethoxyquinazolin-4(3H)-one] was tested, and the inhibition at 1 µM [1] was 8%, the inhibition at 10 µM [1] was 42% and the inhibition at 1 µM (PARP1) was 6%. The inhibition at 10 µM (PARP1) was 39%.

`COc1cc(OC)c2c(=O)[nH]c(-c3cccc(C(=O)N4CCN(C(=O)C5CC5)CC4)c3)nc2c1` [Compound 11a, 2-(3-(4-(Cyclopropanecarbonyl)piperazine-1-carbonyl)phenyl)-5,7-dimethoxyquinazolin-4(3H)-one] gave an inhibition at 1 µM [1] of 4%, an inhibition at 10 µM [1] of 50% and an inhibition at 1 µM (PARP1) of 6%. It also gave an inhibition at 10 µM (PARP1) of 57%.

`O=C(c1cccc(-c2nc3ccccc3c(=O)[nH]2)c1)N1CCN(C(=O)C2CC2)CC1` [Compound 11b, 2-(3-(4-(Cyclopropanecarbonyl)piperazine-1-carbonyl)phenyl)quinazolin-4(3H)-one] was tested, and the inhibition at 1 µM [1] was 12%, the inhibition at 10 µM [1] was 43% and the inhibition at 1 µM (PARP1) was 16%. For the same compound, the inhibition at 10 µM (PARP1) was 70%.

In the case of `COc1cccc2nc(-c3cccc(C(=O)N4CCN(C(=O)C5CC5)CC4)c3)[nH]c(=O)c12` [Compound 11e, 2-(3-(4-(Cyclopropanecarbonyl)piperazine-1-carbonyl)phenyl)-5-methoxyquinazolin-4(3H)-one], the inhibition at 1 µM [1] is reported as 8%, the inhibition at 10 µM [1] is reported as 30% and the inhibition at 1 µM (PARP1) is reported as 4%. The inhibition at 10 µM (PARP1) was 46%.

In the case of `COc1cc(OC)c2c(=O)[nH]c(-c3ccc(C(=O)N4CCN(C(=O)C5CC5)CC4)cc3F)nc2c1` [Compound 15a, 2-(4-(4-(Cyclopropanecarbonyl)piperazine-1-carbonyl)-2-fluorophenyl)-5,7-dimethoxyquinazolin-4(3H)-one], the inhibition at 1 µM [1] is reported as 7%, the inhibition at 10 µM [1] is reported as 68% and the inhibition at 1 µM (PARP1) is reported as 14%. It also gave an inhibition at 10 µM (PARP1) of 72%.

Compound `O=C(c1ccc(-c2nc3ccccc3c(=O)[nH]2)c(F)c1)N1CCN(C(=O)C2CC2)CC1` [Compound 15b, 2-(4-(4-(Cyclopropanecarbonyl)piperazine-1-carbonyl)-2-fluorophenyl)quinazolin-4(3H)-one] has an inhibition at 1 µM [1] of 4%, an inhibition at 10 µM [1] of 53% and an inhibition at 1 µM (PARP1) of 6%. For the same compound, the inhibition at 10 µM (PARP1) was no more than 87%.

With `COc1cc(OC)c2c(=O)[nH]c(-c3ccc(C(=O)N4CCn5c(nnc5C(F)(F)F)C4)cc3F)nc2c1` [Compound 15c, 2-(2-Fluoro-4-(3-(trifluoromethyl)-5,6,7,8-tetrahydro-[1,2,4]triazolo[4,3-a]pyrazine-7-carbonyl)phenyl)-5,7-dimethoxyquinazolin-4(3H)-one] the inhibition at 1 µM [1] was 5%, the inhibition at 10 µM [1] was 30% and the inhibition at 1 µM (PARP1) was 11%. For the same compound, the inhibition at 10 µM (PARP1) was 55%.

`O=C(c1ccc(-c2nc3ccccc3c(=O)[nH]2)c(F)c1)N1CCn2c(nnc2C(F)(F)F)C1` [Compound 15d, 2-(2-Fluoro-4-(3-(trifluoromethyl)-5,6,7,8-tetrahydro-[1,2,4]triazolo[4,3-a]pyrazine-7-carbonyl)phenyl)quinazolin-4(3H)-one] gave an inhibition at 1 µM [1] of 3%, an inhibition at 10 µM [1] of 18% and an inhibition at 10 µM (PARP1) of 60%.

`COc1cccc2nc(-c3ccc(C(=O)N4CCN(C(=O)C5CC5)CC4)cc3F)[nH]c(=O)c12` [Compound 15e, 2-(4-(4-(Cyclopropanecarbonyl)piperazine-1-carbonyl)-2-fluorophenyl)-5-methoxyquinazolin-4(3H)-one] gave an inhibition at 1 µM [1] of 9% and an inhibition at 1 µM (PARP1) of 7%.

`COc1cc(OC)c2c(=O)[nH]c(-c3cc(Cl)ccc3OCCOc3ccccc3C(N)=O)nc2c1` [Compound 19a, 2-(2-(4-Chloro-2-(5,7-dimethoxy-4-oxo-3,4-dihydroquinazolin-2-yl)phenoxy)ethoxy)benzamide] showed an inhibition at 1 µM [1] of 31%, an inhibition at 10 µM [1] of 90% and an inhibition at 1 µM (PARP1) of 30%. For the same compound, the inhibition at 10 µM (PARP1) was 85% and the IC50 (MDA-MB-468 cells; Homo sapiens, MDA-MB-468, 24 h) was 6 ± 0.9 µM.

`COc1cc(OC)c2c(=O)[nH]c(-c3cc(Cl)ccc3OCCCOc3ccccc3C(N)=O)nc2c1` [Compound 19b, 2-(3-(4-Chloro-2-(5,7-dimethoxy-4-oxo-3,4-dihydroquinazolin-2-yl)phenoxy)propoxy)benzamide] gave an inhibition at 1 µM [1] of 3%, an inhibition at 10 µM [1] of 69% and an inhibition at 1 µM (PARP1) of 35%. The inhibition at 10 µM (PARP1) was 81% and the IC50 (MDA-MB-468 cells; Homo sapiens, MDA-MB-468, 24 h) was 10.9 ± 0.5 µM.

Work on `COc1cc(OC)c2c(=O)[nH]c(-c3cc(Cl)ccc3OCCCCOc3ccccc3C(N)=O)nc2c1` [Compound 19c, 2-(4-(4-Chloro-2-(5,7-dimethoxy-4-oxo-3,4-dihydroquinazolin-2-yl)phenoxy)butoxy)benzamide] yielded an inhibition at 1 µM [1] of 7%, an inhibition at 10 µM [1] of 54% and an inhibition at 1 µM (PARP1) of 29%. For the same compound, the inhibition at 10 µM (PARP1) was 84% and the IC50 (MDA-MB-468 cells; Homo sapiens, MDA-MB-468, 24 h) was 7.4 ± 1.8 µM.

For `COc1cc(OC)c2c(=O)[nH]c(-c3cc(Cl)ccc3OCCCCCOc3ccccc3C(N)=O)nc2c1` [Compound 19e, 2-((5-(4-Chloro-2-(5,7-dimethoxy-4-oxo-3,4-dihydroquinazolin-2-yl)phenoxy)pentyl)oxy)benzamide], the inhibition at 1 µM [1] was 4%, the inhibition at 10 µM [1] was 55% and the inhibition at 1 µM (PARP1) was 18%. For the same compound, the inhibition at 10 µM (PARP1) was 71% and the IC50 (MDA-MB-468 cells; Homo sapiens, MDA-MB-468, 24 h) was 15.3 ± 3.6 µM.

For `COc1cc(OC)c2c(=O)[nH]c(-c3ccc(OCOc4ccccc4C(N)=O)cc3)nc2c1` [Compound 19v, 2-((4-(5,7-Dimethoxy-4-oxo-3,4-dihydroquinazolin-2-yl)phenoxy)methoxy)benzamide], the inhibition at 1 µM [1] was 29%, the inhibition at 10 µM [1] was 60% and the inhibition at 1 µM (PARP1) was 19%. It also gave an inhibition at 10 µM (PARP1) of 51%.

Compound `O=C(c1cc(Cc2n[nH]c(=O)c3ccccc23)ccc1F)N1CCN(C(=O)C2CC2)CC1` [Olaparib, reference compound] has an IC50 (MDA-MB-468 cells; Homo sapiens, MDA-MB-468, 24 h) of 1.1 ± 1.4 µM.
